Data from US20230348495A1, “A COMPOUND HAVING INHIBITORY ACTIVITY AGAINST KRAS G12D MUTATION” (TAIHO PHARMACEUTICAL CO., LTD., priority 2019, published 2023).
pIC50: −log10 of the molar value.

Assays:
KRAS G12D = KRAS G12D (Homo sapiens (Human), UniProt P01116, G12D); assay: Inhibitory activity on KRAS G12D nucleotide (GDP-GTP) exchange reaction in vitro (SOS1-dependent, BODIPY FL GDP); assay type: biochemical; conditions: BODIPY FL GDP-bound KRAS G12D, compound 25° C. 1 hour, then SOS1 and GMPPNP 30 minutes
Sequence of KRAS G12D (P01116 other isoform, or with tags, fused parts or gaps G12D (already in the parent)): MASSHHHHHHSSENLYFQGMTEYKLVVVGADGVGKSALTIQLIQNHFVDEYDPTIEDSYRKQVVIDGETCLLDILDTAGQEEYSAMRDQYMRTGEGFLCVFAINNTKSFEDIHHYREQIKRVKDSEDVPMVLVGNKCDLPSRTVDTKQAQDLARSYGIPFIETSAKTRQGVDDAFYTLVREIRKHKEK
Source text: Test Example 1: Evaluation of inhibitory activity of compounds on KRAS G12D nucleotide (GDP-GTP) exchange reaction in vitro
Recombinant KRAS G12D (conjugated N-terminus His6-tag, TEV protease cleavage site and KRAS G12D residues 1-169 (SEQ ID NO: 1), prepared by the method described as below) and cleaved recombinant SOS1 (residues 564-1049(SEQ ID NO: 2), prepared by the method as below) proteins were expressed in E. coli and purified by affinity chromatography.
To prepare the recombinant KRAS G12D, the codon-optimized DNA sequence for the recombinant KRAS G12D (conjugated N-terminus His6-tag, TEV protease cleavage site and KRAS G12D residues 1-169 (SEQ ID NO: 3))was synthesized by GeneArt Technology (Life Technologies, Carlsbad, CA, US). The construct was subcloned into the expression vector pET28a and transformed into Escherichia coli BL21 (DE3) strains (Novagen, Madison, WI, US).
The transformed strain was cultivated in 2 L Luria Broth medium with 25 μg/mL kanamycin at a temperature of 37° C. to a density of 0.6 (OD600), then induced for expression with […] IPTG and further cultivated for 4 h. The cell pellet was resuspended in ice-cold lysis buffer containing 50 mM Tris-HCl (pH 7.5), 200 mM NaCl, and 100 μM TCEP (tris(2-carboxyethyl)phosphine).
After sonication, the disrupted debris was removed by centrifugation. The supernatant was applied on to Ni-NTA affinity gels, and the recombinant human KRAS (G12D) eluted fraction was collected. The buffer of the collected fraction was exchanged to the buffer containing 50 mM Tris-HCl (pH 7.5), 200 mM NaCl, 10% Glycerol, and 5 mM DTT by PD-10 column (GE-Healthcare, Chicago, IL, US).
To prepare the cleaved recombinant SOS1, the codon optimized DNA sequences for the recombinant SOS1 (residues 564-1049 with a conjugated N-terminus His6-tag and TEV protease cleavage site (SEQ ID NO: 4)) was synthesized by GeneArt Technology (Life Technologies). The construct was subcloned into the expression vector pET28a and transformed into Escherichia coli BL21 (DE3) strains (Novagen, Madison, WI, USA).
The transformed strain was cultivated in 2 L Terrific Broth medium with 25 μg/mL kanamycin at a temperature of 37° C. to a density of 0.8 (OD600), then shifted to a temperature of 16° C., induced for expression with […] IPTG, and further cultivated for 16 h. The cell pellet was resuspended in ice-cold lysis buffer containing 50 mM Tris-HCl (pH 7.5), 200 mM NaCl, and 100 μM TCEP.
After sonication, the disrupted debris was removed by centrifugation. The supernatant was applied on to Ni-NTA affinity gels, and the recombinant human SOS1 eluted fraction was collected. Then, His6-tagged TEV protease was added to the collected fraction, dialyzed with the ice-cold lysis buffer for 16 h at a temperature of 4° C., and applied on to Ni-NTA affinity gels. The flow-through fraction containing the tag-cleavaged recombinant human SOS1 was collected. The buffer of the collected fraction was exchanged to the buffer containing 50 mM Tris-HCl (pH 7.5), 200 mM NaCl, 10% Glycerol, and 5 mM DTT by PD-10 column (GE-Healthcare).
To prepare BODIPY FL (fluorescent dye) GDP-bound KRAS G12D protein, 50 μM KRAS G12D protein was incubated with 0.5 mM BODIPY FL GDP in a loading buffer (20 mM Tris-HCl (pH 7.5), 50 mM NaCl, 1 mM DTT and 2.5 mM EDTA) for 1 hour on ice. After the incubation, MgCl2 was added to a final concentration of 10 mM, followed by incubation at room temperature for 30 minutes.
The mixture was allowed to pass through a NAP-5 column to remove free nucleotides and purified BODIPY FL GDP-bound KRAS G12D protein was used for compound evaluation.
For the measurement of the inhibitory activity of compounds on GDP-GTP exchange rate of recombinant KRAS G12D, BODIPY FL GDP-bound KRAS G12D protein was incubated with various concentrations of compound in a reaction buffer (20 mM Tris-HCl (pH 7.5), 100 mM NaCl, 1 mM MgCl2, 2 mM DTT, 0.1% Tween 20) at 25° C. for 1 hour. […]

[1] = tested on: KRAS-G12D mutant cell line (A-427); assay: Growth inhibition activity on KRAS-G12D mutant cell line (A-427), CellTiter-Glo 3D; assay type: cell-based; conditions: Homo sapiens, 72 h, A-427 cells, 3-day culture with compound, read-out: A427 CTX IC50
Protocol: Test Example 2: A measurement test of growth inhibition activity on KRAS-G12D mutant cell line (A-427) (in vitro) A-427 cells (ATCC, Cat #: HTB-53), which are a KRAS-G12D mutant human lung cancer cell line, were suspended in a 10% fetal bovine serum-containing E-MEM medium (manufactured by Fujifilm Wako Pure Chemical Corporation). The cell suspension was seeded into each well of a 384-well U bottom microplate and cultured in an incubator containing 5% CO2 gas at 37° C. for 1 day.
The compound of the present invention was dissolved in DMSO, and the test compound was diluted with DMSO to give a concentration 500 times the final concentration. The solution of the test compound in DMSO was diluted with the medium used for suspending cells and added to each well of the cell-culture plate to give a DMSO final concentration of 0.2%, followed by culture in an incubator containing 5% CO2 gas at 37° C. for another 3 days. The cell count after a 3-day culture in the presence of the compound was measured using CellTiter-Glo 3D Reagent (manufactured by Promega Corporation).
All wells were added with CellTiter-Glo 3D Reagent and mixed for 10 minutes. 30 minutes after mixing, luminescence was measured by a plate reader. The growth inhibition rate was calculated from the following equation, and the concentration of the test compound at which 50% inhibition was achieved (IC50 (μM)) was determined.
Growth Inhibition Rate(%)=(C−T)/(C)×100
T: the emission intensity in a well into which a test compound was added.
C: the emission intensity in a well into which a test compound was not added.

Row | Compound | pIC50 (KRAS G12D) | pIC50 [1]
1 | O=C(c1cc(O)cc2cccc(I)c12)N1Cc2nc(OCC3(CN4CC[C@@H](F)C4)CC3)nc(N3CC4CCC(C3)N4)c2C1 [Example 12, (4-(3,8-diazabicyclo[3.2.1]octan-3-yl)-2-((1-(((R)-3-fluoropyrrolidin-1-yl)methyl)cyclopropyl)methoxy)-5,7-dihydro-6H-pyrrolo[3,4-d]pyrimidin-6-yl) (3-hydroxy-8-iodonaphthalen-1-yl)methanone] | 8.36 | 5.09
2 | O=C(c1cc(O)cc2cccc(I)c12)N1Cc2nc(OCC3(CN4CCOCC4)CC3)nc(N3CC4CCC(C3)N4)c2C1 [Example 13, (4-(3,8-diazabicyclo[3.2.1]octan-3-yl)-2-((1-(morpholinomethyl)cyclopropyl)methoxy)-5,7-dihydro-6H-pyrrolo[3,4-d]pyrimidin-6-yl) (3-hydroxy-8-iodonaphthalen-1-yl)methanone] | 8.26 | 5.07
3 | CN(C)CC1(COc2nc(N3CC4CCC(C3)N4)c3cc(Cl)c(-c4cc(O)cc5ccccc45)c(F)c3n2)CC1 [Example 14, 4-(4-(3,8-diazabicyclo[3.2.1]octan-3-yl)-6-chloro-2-((1-((dimethylamino)methyl)cyclopropyl)methoxy)-8-fluoroquinazolin-7-yl)naphthalen-2-ol] | 8.05 | 5.90
4 | CN(C)CC1(COc2nc(N3CC4CCC(C3)N4)c3ccc(-c4cc(O)cc5ccccc45)c(F)c3n2)CC1 [Example 15, 4-(4-(3,8-diazabicyclo[3.2.1]octan-3-yl)-2-((1-((dimethylamino)methyl)cyclopropyl)methoxy)-8-fluoroquinazolin-7-yl) naphthalen-2-ol] | 8.33 | 5.87
5 | CN1CCC[C@H]1COc1nc(N2CC3CCC(C2)N3)c2ccc(-c3cc(O)cc4ccccc34)c(F)c2n1 [Example 16, 4-(4-(3,8-diazabicyclo[3.2.1]octan-3-yl)-8-fluoro-2-(((S)-1-methylpyrrolidin-2-yl)methoxy)quinazolin-7-yl) naphthalen-2-ol] | 7.99 | 5.62
6 | CCc1cc2c(N3CC4CCC(C3)N4)nc(OCC3(CN(C)C)CC3)nc2c(F)c1-c1cc(O)cc2ccccc12 [Example 19, 4-(4-(3,8-diazabicyclo[3.2.1]octan-3-yl)-2-((1-((dimethylamino)methyl)cyclopropyl)methoxy)-6-ethyl-8-fluoroquinazolin-7-yl)naphthalen-2-ol] | 8.15 | 5.80
7 | CN(C)CC1(COc2nc3c(c(N4C[C@@H]5CC[C@H]4CN5)n2)CCN(c2cc(O)cc4cccc(Br)c24)C3)CC1 [Example 20, 4-(4-((1S,4S)-2,5-diazabicyclo[2.2.2]octan-2-yl)-2-((1-((dimethylamino)methyl)cyclopropyl)methoxy)-5,8-dihydropyrido[3,4-d]pyrimidin-7(6H)-yl)-5-bromonaphthalen-2-ol] | 8.52 | 5.71
8 | CN(C)CC1(COc2nc3c(c(N4CC5CCC(C4)N5)n2)CCN(c2cc(O)cc4cccc(Br)c24)C3)CC1(F)F (stereo not shown) [Example 21, 4-(4-(3,8-diazabicyclo[3.2.1]octan-3-yl)-2-((1-((dimethylamino)methyl)-2,2-difluorocyclopropyl)methoxy)-5,8-dihydropyrido[3,4-d]pyrimidin-7(6H)-yl)-5-bromonaphthalen-2-ol] | 8.01 | 6.27
9 | CN(C)CC1(COc2nc3c(c(N4CC5CCC(C4)N5)n2)CCN(c2nc(N)cc4cccc(Br)c24)C3)CC1 [Example 22, 1-(4-(3,8-diazabicyclo[3.2.1]octan-3-yl)-2-((1-((dimethylamino)methyl)cyclopropyl)methoxy)-5,8-dihydropyrido[3,4-d]pyrimidin-7 (6H)-yl) -8-bromoisoquinolin-3-amine] | 7.89 | 5.39
10 | C#Cc1cccc2cc(O)cc(C3Cc4nc(OCC5(CN(C)C)CC5)nc(N5CC6CCC(C5)N6)c4CO3)c12 (stereo not shown) [Example 23, 4-(4-(3,8-diazabicyclo[3.2.1]octan-3-yl)-2-((1-((dimethylamino)methyl)cyclopropyl)methoxy)-7,8-dihydro-5H-pyrano[4,3-d]pyrimidin-7-yl)-5-ethynylnaphthalen-2-ol] | 8.52 | 5.83
11 | C#Cc1cccc2cccc(C3CCc4c(nc(OCC5(CN(C)C)CC5)nc4N4CC5CCC(C4)N5)C3)c12 (stereo not shown) [Example 24, 1-(1-(((4-(3,8-diazabicyclo[3.2.1]octan-3-yl)-7-(8-ethynylnaphthalen-1-yl)-5,6,7,8-tetrahydroquinazolin-2-yl)oxy)methyl)cyclopropyl)-N,N-dimethylmethanamine] | 7.77 | 5.91
12 | CN1C[C@H](F)C[C@H]1COc1nc2c(c(N3CC4CCC(C3)N4)n1)CCN(c1cc(O)cc3cccc(Br)c13)C2 [Example 27, 4-(4-(3,8-diazabicyclo[3.2.1]octan-3-yl)-2-(((2S,4R)-4-fluoro-1-methylpyrrolidin-2-yl)methoxy)-5,8-dihydropyrido[3,4-d]pyrimidin-7(6H)-yl)-5-bromonaphthalen-2-ol] | 7.73 | 6.19
13 | Oc1cc(N2CCc3c(nc(OCC4(CN5CCOCC5)CC4)nc3N3C[C@@H]4CC[C@H]3CN4)C2)c2c(Br)cccc2c1 [Example 28, 4-(4-((1S,4S)-2,5-diazabicyclo[2.2.2]octan-2-yl)-2-((1-(morpholinomethyl)cyclopropyl)methoxy)-5,8-dihydropyrido[3,4-d]pyrimidin-7(6H)-yl)-5-bromonaphthalen-2-ol] | 8.44 | 6.09
14 | CN(C)CC1(COc2nc3c(c(N4CC5CCC(C4)N5)n2)CCN(c2cccc4cccc(Br)c24)C3)CC1(F)F (stereo not shown) [Example 29, 1-(1-(((4-(3,8-diazabicyclo[3.2.1]octan-3-yl)-7-(8-bromonaphthalen-1-yl)-5,6,7,8-tetrahydropyrido[3,4-d]pyrimidin-2-yl)oxy)methyl)-2,2-difluorocyclopropyl)-N,N-dimethylmethanamine] | 7.42 | 5.90
